In US20100204258A1, “METHODS AND COMPOSITIONS FOR MODULATING INSULIN SECRETION AND GLUCOSE METABOLISM” (The Trustees of Columbia University in the City of New York, priority 2007, published 2010):
Entries after “also recorded” stand apart in the source; their conditions may differ.

Experiments:
[1] = test system: Lewis rats; assay: Intraperitoneal glucose tolerance test (IPGTT) in normal Lewis rats after a single i.v. dose; format: in vivo, rat; conditions: for blood glucose excursion during IPGTT: Lewis rats 9-11 week old, 1.6 μg/gm body weight i.v. 60 min before IPGTT, vs vehicle
Description: (§1) Experimental animals. All animal studies were reviewed and approved by the Institutional Animal Care and Use Committee (IACUC) at Columbia University's Medical School. All experiments were performed in accordance with the IACUC approved procedures. Normal male Lewis rats (100-400 grams) were obtained from Taconic (Taconic Inc., Germantown, N.Y.) and were housed under conditions of controlled humidity (55±5%), temperature (23±1° C.), and lighting (light on: 06.00-18.00 hours) with free access to standard laboratory rat chow and water. Rats were handled daily to minimize nonspecific stress for more than 7 days before the experiments began. In most experiments, it was necessary to measure blood glucose in fasting animals. For these groups, food was removed at the beginning of the light cycle, 6 hours before glucose levels were measured. Diabetes mellitus was induced by intraperitoneal injection of streptozotocin (Sigma Chemical Co., St. Louis, Mo.) (25 to 50 mg/kg) to animals (100 to 150 grams) that had been fasted 4 hours to enhance the effectiveness of STZ treatment.
(§2) The STZ solution was prepared fresh by dissolving it in 0.1 M citrate buffer (pH 5.5) and terminally sterile filtered. Control Lewis age and weight matched rats received a 0.5 ml/kg citrate vehicle alone via intraperitoneal injection. Sixty minutes prior to intraperitoneal glucose tolerance testing (IPGTT), anesthesia of male Lewis rats was induced with isoflurane (3-4% in oxygen) and maintained with 1-2% isoflurane in oxygen. Anaesthetized rats were administered TBZ at the indicated dose by intravenous (i.v.) injection using the penile vein. TBZ was dissolved in neat sterile dimethylsulfoxide (DMSO) and diluted (always more than 10 fold) in sterile saline. Rats received injections of vehicle alone (10% DMSO in saline) or reserpine (in saline). Animals recovered fully before receiving IPGTT.
(§3) Blood glucose, insulin, glucagon and intraperitoneal glucose tolerance tests measurements. Blood samples were collected from a superficial blood vessel in the tails of the rats following 6 hours of fasting between 12:00 noon and 2:00 p.m. The fasting blood glucose (BG) levels of the rats were measured using an Accu-Check blood glucose monitoring system (Roche Diagnostics, Sommerville, N.J.). Intraperitoneal glucose tolerance tests (IPGTT) were performed in 6 hour fasting un-anaesthetized animals. Briefly, after baseline BG measurements, animals received an intraperitoneal (i.p.) injection of 1 gram glucose/kilogram body weight. To minimize stress during the procedure, rats were handled by the same operator during acclimatization and later during weighing and IPGTT. Blood samples (approximately 30 μl) were collected at baseline and then again 15, 30, 60, 90, and 120 minutes following i.p. glucose administration. BG concentrations were measured immediately on these samples and the remainder processed.
(§4) Plasma was immediately separated by centrifugation at 3000×g for 15 minutes and then stored at −20° C. until analysis. Insulin and glucagon concentration measurements in rat plasma were performed by ELISA as per the manufacturer's instructions using kits from Linco Research Inc. (St. Charles, Mo.) and Alpco Diagnostics (Salem, N.H.), respectively. To validate the test, saline injections were performed by the same method. […] The area under the IPGTT glucose concentration×time curve (AUCIPGTT) was calculated by the trapezoidal rule. The area under the insulin or glucagon concentration×time curve (AUC INS or AUC GCG) was calculated in a similar manner.

[2] = test system: diabetic Lewis rats; assay: IPGTT in streptozotocin-induced diabetic Lewis rats; format: in vivo, rat
Description: as §1, §2
Blood glucose, insulin, glucagon and intraperitoneal glucose tolerance tests measurements. Blood samples were collected from a superficial blood vessel in the tails of the rats following 6 hours of fasting between 12:00 noon and 2:00 p.m. The fasting blood glucose (BG) levels of the rats were measured using an Accu-Check blood glucose monitoring system (Roche Diagnostics, Sommerville, N.J.). […] BG concentrations were measured immediately on these samples and the remainder processed.
Plasma was immediately separated by centrifugation at 3000×g for 15 minutes and then stored at −20° C. until analysis. […] The area under the IPGTT glucose concentration×time curve (AUCIPGTT) was calculated by the trapezoidal rule. The area under the insulin or glucagon concentration×time curve (AUC INS or AUC GCG) was calculated in a similar manner.

[3] = test system: plasma insulin and glucagon; assay: Plasma insulin and glucagon (ELISA) during IPGTT; format: in vivo, rat
Description: as §3, §4

[4] = test system: human islets; assay: Glucose-stimulated insulin secretion of purified human cadaveric islets ex vivo; format: cell-based; conditions: absence of high glucose stimulation; data not shown
Description: Human islet tissue and glucose-stimulated insulin secretion. The islet tissue used in these studies was obtained with institutional review board approval. Pancreas digestion and islet isolation were performed using minor modifications of the Edmonton purification protocol. (Shapiro, […] al. “Islet […] in seven patients with type I diabetes mellitus using a glucocortoid-free immunosuppressive regimen.” New England Journal of Medicine 343(4):230-8, (2000)) The determination of islet cell mass, viability, and purity were also performed. Purified islets were cultured in CMRL 1066 culture media with 10% fetal bovine serum at 37° C. in humidified air (5% CO2) for 18 to 24 hours. The human islet insulin secretory response was performed according to a procedure described by the Edmonton group. (Id.) Briefly, after an overnight culture, islets were incubated with either low or high concentrations of glucose for 2 hours at 37° C. and 5% CO2. The supernatant was collected for insulin measurement. Insulin concentrations in these experiments were analyzed with a human insulin enzyme-linked immunosorbent assay (ELISA) kit (ALPCO Insulin ELISA kit, Windham, N.H.). In some experiments TBZ, DTBZ or epinephrine was added to the cultures before glucose stimulation.

[5] = test system: Lewis rats; assay: IPGTT after 2 mg/kg i.v. of VMAT2 ligands (FIG. 10); format: in vivo, rat; conditions: 2 mg/kg body weight i.v.; for blood glucose excursion during IPGTT: vs vehicle (DMSO)
Description: Experimental animals. All animal studies were conducted as described in Example 1.
Anaesthetized rats were administered TBZ, THB, butamol, reserpine, emetine, or Compound 6 at a dose of approximately 2-3 mg/kg body weight by intravenous (i.v.) injection using the penile vein. TBZ, THB, butamol, reserpine, emetine, and Compound 6 were each separately dissolved in neat sterile dimethylsulfoxide (DMSO) and diluted (always more than 10 fold) in sterile saline. Rats received injections of vehicle alone (10% DMSO in saline) or reserpine (in saline). Animals recovered fully before receiving IPGTT.
as §3, with “30, 45,” for “30,”, “glucose.” for “glucose administration.”

In the case of `COc1cc2c(cc1OC)C1CC(=O)C(CC(C)C)CN1CC2` (stereo not drawn) [TBZ, tetrabenazine], the “reduction of the glucose excursion (areas under the curve during IPGTT)” value ([1]; 1.6 μg/gbm (gram body weight) i.v.) was 40-50%, the “AUC IPGTT, controls vs TBZ treated animals” value ([1]; 1.6 μg/gm body weight, n=4 experiments, p<0.05) was “significantly higher” and the “rise in glucose concentration around 15 minutes after injection” value ([1]; IPGTT following TBZ administration) was “blunted”. The “blood glucose excursion during IPGTT” value [1] was “reduces the blood glucose excursion”, the “blood glucose excursion during IPGTT” value ([1]; listed as tetrabenazine) was “significant change in the size and shape of the glucose disposition curve” and the “baseline fasting glucose concentration” value ([1]; following TBZ administration, before glucose challenge, data not shown) was “no reproducible differences”. The “dose response of AUC IPGTT (normalized to baseline)” value ([1]; varying doses of TBZ before IPGTT) was “reduces the blood glucose excursion in a dose dependent manner; also recorded: complex dose response effect”, the “blood glucose excursion during IPGTT” value ([2]; STZ-diabetic Lewis rats, 1.6 μg/gm, vs vehicle) was “reduces the blood glucose excursion” and the “blood glucose levels before i.p. glucose challenge” value ([2]; STZ-diabetic rats, around sixty minutes following i.v. injection) was “returned to control or near normal levels”. For the same compound, the “area under the curve in the IPGTT” value ([2]; STZ-diabetic rats, following glucose challenge) was “smaller area under the curve”, the glucose tolerance-enhancing effects ([2]; animals with initial untreated AUC IPGTT>50,000 minutes×mg/dl, data not shown) was “not observed” and the “plasma insulin levels during IPGTT” value ([3]; TBZ 1.6 μg/gm and glucose challenge, vs vehicle treated controls) was “alters; also recorded: greater”. For the same compound, the “AUC INS with treatment relative to AUC INS of control animals” value ([3]; four out of five experiments) was “greater than two fold”, the “plasma glucagon levels during IPGTT” value ([3]; i.v. TBZ 1.6 μg/gm and glucose challenge, relative to controls) was “alters; also recorded: generally lower” and the “baseline plasma concentrations of glucagon” value ([3]; prior to glucose challenge, not statistically significant) was “sometimes lower than controls”. The “AUC GCG, less than that of control animals” value ([3]; three of five experiments) was 75%-85%, the “insulin secretion of human islets” value [4] was “not observed” and the “blood glucose levels during IPGTT” value ([5]; around sixty minutes following glucose challenge) was “returned to control or near normal levels”. For the same compound, the “area under the curve in the IPGTT” value ([5]; following glucose challenge) was “smaller area under the curve”, the “blood glucose excursion during IPGTT” value [5] was “reduce the blood glucose excursion” and the “blood glucose excursion during IPGTT” value ([5]; listed as Tetrabenazine) was “reduced the blood glucose excursion”.
